Measurements: ChEMBL document CHEMBL3885881, “DrugMatrix”

Species on record: Rattus norvegicus
Assay: DrugMatrix - Regimen: Daily Repeat
Type: toxicity, organism-based, Sprague-Dawley
Set-up: regimen Daily Repeat, gender Male, age 6-8 weeks
Conditions: in vivo, po, 200 mg/kg, route oral GAVAGE, dose level High, vehicle .5 % CMC; for ABSOLUTE BASOPHIL / ABSOLUTE EOSINOPHIL / ABSOLUTE LYMPHOCYTE / ABSOLUTE MONOCYTE / ABSOLUTE SEGMENTED NEUTROPHIL / BASOPHIL / EOSINOPHIL / ERYTHROCYTE COUNT / HEMATOCRIT / HEMOGLOBIN / LEUKOCYTE COUNT / LYMPHOCYTE / MEAN CORPUSCULAR HEMOGLOBIN / MEAN CORPUSCULAR HEMOGLOBIN CONCENTRATION / MEAN CORPUSCULAR VOLUME / MONOCYTE / NEUTROPHIL / NUCLEATED RED BLOOD CELLS / PLATELET COUNT: tissue Blood; for ALANINE AMINOTRANSFERASE / ALBUMIN / ALKALINE PHOSPHATASE / ASPARTATE AMINOTRANSFERASE / BLOOD UREA NITROGEN / CARBON DIOXIDE / CHLORIDE / CHOLESTEROL / CREATINE PHOSPHOKINASE / CREATININE / GLUCOSE / LACTATE DEHYDROGENASE / LIPASE / PHOSPHORUS / POTASSIUM / SODIUM / TOTAL BILIRUBIN / TOTAL PROTEIN / URIC ACID: tissue Plasma

Structure (SMILES): Nc1nc(N)c2nc(-c3ccccc3)c(N)nc2n1
- ABSOLUTE BASOPHIL (72 h, time 3 day): 0 CELLS/uL
- ABSOLUTE EOSINOPHIL (72 h, time 3 day): 51 CELLS/uL
- ABSOLUTE LYMPHOCYTE (72 h, time 3 day): 12546 CELLS/uL
- ABSOLUTE MONOCYTE (72 h, time 3 day): 436.67 CELLS/uL
- ABSOLUTE SEGMENTED NEUTROPHIL (72 h, time 3 day): 1333 CELLS/uL
- BASOPHIL (72 h, time 3 day): 0%
- EOSINOPHIL (72 h, time 3 day): 0.33%
- ERYTHROCYTE COUNT (72 h, time 3 day): 5.38 x10E6/uL
- HEMATOCRIT (72 h, time 3 day): 33.6%
- HEMOGLOBIN (72 h, time 3 day): 13.03 G/DL
- LEUKOCYTE COUNT (72 h, time 3 day): 14.37 x10E3/uL
- LYMPHOCYTE (72 h, time 3 day): 87.33%
- MEAN CORPUSCULAR HEMOGLOBIN (72 h, time 3 day): 24.23 pg
- MEAN CORPUSCULAR HEMOGLOBIN CONCENTRATION (72 h, time 3 day): 38.83 G/DL
- MEAN CORPUSCULAR VOLUME (72 h, time 3 day): 62.47 fL
- MONOCYTE (72 h, time 3 day): 3%
- NEUTROPHIL (72 h, time 3 day): 9.33%
- NUCLEATED RED BLOOD CELLS (72 h, time 3 day): 0.33 /100WBC
- PLATELET COUNT (72 h, time 3 day): 1312 x10E3/uL
- ALANINE AMINOTRANSFERASE (72 h, time 3 day): 57.33 u/L
- ALBUMIN (72 h, time 3 day): 4.17 G/DL
- ALKALINE PHOSPHATASE (72 h, time 3 day): 279 u/L
- ASPARTATE AMINOTRANSFERASE (72 h, time 3 day): 70.67 u/L
- BLOOD UREA NITROGEN (72 h, time 3 day): 22.33 mg/dL
- CARBON DIOXIDE (72 h, time 3 day): 27.67 mmol/L
- CHLORIDE (72 h, time 3 day): 104.67 MEQ/L
- CHOLESTEROL (72 h, time 3 day): 86.67 mg/dL
- CREATINE PHOSPHOKINASE (72 h, time 3 day): 220 u/L
- CREATININE (72 h, time 3 day): 0.24 mg/dL
- GLUCOSE (72 h, time 3 day): 154 mg/dL
- LACTATE DEHYDROGENASE (72 h, time 3 day): 170.33 u/L
- LIPASE (72 h, time 3 day): 9.33 u/L
- PHOSPHORUS (72 h, time 3 day): 12.93 mg/dL
- POTASSIUM (72 h, time 3 day): 6.66 MEQ/L
- SODIUM (72 h, time 3 day): 145.07 MEQ/L
- TOTAL BILIRUBIN (72 h, time 3 day): 0.17 mg/dL
- TOTAL PROTEIN (72 h, time 3 day): 5.8 G/DL
- URIC ACID (72 h, time 3 day): 1.5 mg/dL
- ABSOLUTE BASOPHIL (120 h, time 5 day): 0 CELLS/uL
- ABSOLUTE EOSINOPHIL (120 h, time 5 day): 238.67 CELLS/uL
- ABSOLUTE LYMPHOCYTE (120 h, time 5 day): 14472.33 CELLS/uL
- ABSOLUTE MONOCYTE (120 h, time 5 day): 270.33 CELLS/uL
- ABSOLUTE SEGMENTED NEUTROPHIL (120 h, time 5 day): 2185.33 CELLS/uL
- BASOPHIL (120 h, time 5 day): 0%
- EOSINOPHIL (120 h, time 5 day): 1.33%
- ERYTHROCYTE COUNT (120 h, time 5 day): 5.62 x10E6/uL
- HEMATOCRIT (120 h, time 5 day): 33.9%
- HEMOGLOBIN (120 h, time 5 day): 13.03 G/DL
- LEUKOCYTE COUNT (120 h, time 5 day): 17.17 x10E3/uL
- LYMPHOCYTE (120 h, time 5 day): 84.33%
- MEAN CORPUSCULAR HEMOGLOBIN (120 h, time 5 day): 23.2 pg
- MEAN CORPUSCULAR HEMOGLOBIN CONCENTRATION (120 h, time 5 day): 38.43 G/DL
- MEAN CORPUSCULAR VOLUME (120 h, time 5 day): 60.33 fL
- MONOCYTE (120 h, time 5 day): 1.67%
- NEUTROPHIL (120 h, time 5 day): 12.67%
- NUCLEATED RED BLOOD CELLS (120 h, time 5 day): 0.67 /100WBC
- PLATELET COUNT (120 h, time 5 day): 1441.67 x10E3/uL
- ALANINE AMINOTRANSFERASE (120 h, time 5 day): 49.33 u/L
- ALBUMIN (120 h, time 5 day): 4.13 G/DL
- ALKALINE PHOSPHATASE (120 h, time 5 day): 284.33 u/L
- ASPARTATE AMINOTRANSFERASE (120 h, time 5 day): 91.33 u/L
- BLOOD UREA NITROGEN (120 h, time 5 day): 20 mg/dL
- CARBON DIOXIDE (120 h, time 5 day): 27 mmol/L
- CHLORIDE (120 h, time 5 day): 102.67 MEQ/L
- CHOLESTEROL (120 h, time 5 day): 62.33 mg/dL
- CREATINE PHOSPHOKINASE (120 h, time 5 day): 540.67 u/L
- CREATININE (120 h, time 5 day): 0.21 mg/dL
- GLUCOSE (120 h, time 5 day): 156.67 mg/dL
- LACTATE DEHYDROGENASE (120 h, time 5 day): 601 u/L
- LIPASE (120 h, time 5 day): 8.67 u/L
- PHOSPHORUS (120 h, time 5 day): 13.17 mg/dL
- POTASSIUM (120 h, time 5 day): 5.78 MEQ/L
- SODIUM (120 h, time 5 day): 147.03 MEQ/L
- TOTAL BILIRUBIN (120 h, time 5 day): 0.13 mg/dL
- TOTAL PROTEIN (120 h, time 5 day): 5.8 G/DL
- URIC ACID (120 h, time 5 day): 1.77 mg/dL
